Data on three compounds can be found in ChEMBL document CHEMBL1143277, “Submicromolar phosphinic inhibitors of Escherichia coli aspartate transcarbamoylase” (Bioorg Med Chem Lett, 2009).

Each structure is given as a SMILES string. Activity calls are given as the source filed them. No cut-off for these calls is given here.

Experiment [1] in a line: Inhibition of Escherichia coli pEK17/EK1104 ATCase catalytic subunit assessed as formation of N-carbamoyl-L-aspartate by colorimetric assay relative to carbamyl phosphate.
The test system of a further experiment is Escherichia coli. Briefly: Competitive inhibition of Escherichia coli pEK17/EK1104 ATCase catalytic subunit assessed as formation of N-carbamoyl-L-aspartate by colorimetric assay.

For `O=C(O)C[C@H](NC(=O)CP(=O)(O)O)C(=O)O` [PALA], in experiment [1], the Ki turned out to be 16 nM. For the same compound, the result with Escherichia coli was Active.

As to `O=C(O)C[C@H](NC(=O)CP(=O)(O)CO)C(=O)O`, in experiment [1], the Ki amounted to 193 nM. In the experiment on Escherichia coli, the result was Active.

`O=C(O)C[C@H](NC(=O)C[PH](=O)O)C(=O)O`: the Ki in experiment [1] is 417 nM. In the experiment on Escherichia coli, the outcome was Active.

By Ki is commonly meant a dissociation constant, usually derived from enzyme kinetics or from competition with a known ligand.
